Assay results taken from US8623661B2, “Iron chelating agent, method for producing same, method for determining amount of iron ions and method for trapping iron ions” (National University Corporation Asahikawa Medical College, priority 2008, dated 2014).

Key:
[1] = system: iron citrate complex ammonium salt (FAC); assay: Evaluation C: chelating ability in MOPS/acetonitrile solvent, FAC solution; format: binding
Experimental: Evaluation was carried out by the following evaluation method C as to whether or not the iron chelating agent according to Examples 1 to 3 had chelating ability with iron in 3-morpholinopropanesulfonic acid (C7H15NO4S;MOPS) and acetonitrile solution as solvents used in high performance liquid chromatography (HPLC).
2.09 g of morpholinopropanesulfonic acid (C7H15NO4S; FW=209.26, Code 341-01801, Lot PX013, manufactured by Dojindo/Wako Corporation) was added to a 100 mL Erlenmeyer flask, 80 mL of ultrapure water (pure water produced by an ultrapure water production system manufactured by Millipore Corporation (Milli-Q); “Milli-Q water”) was added thereto and dissolved [pH 4.15 (24.4° C.)]. To this solution, 1N sodium hydroxide solution (1 mol/1 sodium hydroxide solution, Code 192-02175, Lot SEP7274, manufactured by Wako Pure Chemicals Industries) was added in 100 μl portions, the pH was adjusted to 7.0 and further Milli-Q water was made up to 100 mL in a measuring cylinder, whereby 100 mL of MOPS solution (pH 6.99) was prepared.
An iron chelating agent solution having an iron chelating agent concentration of 50 mM was prepared with respect to the iron chelating agent according to Examples 1 to 3, in the same manner as the preparation method of the iron chelating solution in evaluation A of the iron chelating agent.
Further, 100 mM of MOPS solution (pH6.99) prepared by the preparation method of the MOPS solution was used.
Furthermore, a stock solution of acetonitrile (C2H3N, FW=41.05, Code 347-06641, Lot WPI96, manufactured by Dojindo/Wako corporation) was used.
13.8 mL of Milli-Q water was taken in a 50 mL conical tube, 1.2 mL of each of the iron chelating agent solutions (Fe-Ser•Na (50 mM), Fe-His•Na (50 mM), Fe-Glu•Na (50 mM)) according to the iron chelating agents of Examples 1 to 3 was added, 1.0 mL of 100 mM MOPS solution was added thereto, and a further 4.0 mL of acetonitrile solution was added to produce an iron chelating solution using MOPS. The iron chelating agent solutions using MOPS and iron chelating agent according to Examples 1 to 3 were defined respectively as Fe-Ser•Na (MOPS solution)” (iron chelating agent according to
Example 1), “Fe-His•Na (MOPS solution)” (iron chelating agent according to Example 2), and “Fe-Glu•Na(MOPS solution)” (iron chelating agent according to Example 3).
An iron citrate complex ammonium salt solution (FAC solution (20 mM)) having a concentration of iron ions of 20 mM and an iron citrate complex ammonium salt solution (FAC solution (2 mM)) having a concentration of iron ions of 2 mM were prepared, in the same manner as the preparation method of the iron citrate complex ammonium solution in evaluation A of the iron chelating agent.
FAC solution (20 mM) was added to and mixed with each of the iron chelating agent solutions [Fe-Ser•Na (MOPS solution), Fe-His•Na (MOPS solution), Fe-Glu•Na (MOPS solution)] using MOPS.

[2] = system: iron citrate complex ammonium salt (FAC); assay: Evaluation A: chelating ability with iron, absorbance after adding chelating agent to iron citrate complex ammonium salt (FAC) solution; format: binding; conditions: for [B] absorbance after addition of iron chelating agent / [B]-[A]: 470 nm; for [B]-[A]: minus blank
Experimental: Evaluation was carried out by the following evaluation method A as to whether the iron chelating agent according to Example 1 had chelating ability with iron.
335 mg of the iron chelating agent (MW:209.2) according to Example 1 was added to a 50 mL conical tube, 15 mL of Dulbecco's phosphate buffered saline (pH 7.2;1×D-PBS) was added thereto, 70 mg of sodium hydroxide (MW:40.0) crystal was added thereto, followed by vigorously stirring (shaking) for 10 minutes, and centrifugation (1000 rpm, flashing) was carried out before the lid was opened. Then, 16.75 mL of 1×D-PBS (pH 7.2) was added thereto, and an iron chelating agent solution was prepared having a total amount of 31.75 mL.
Further, 1×D-PBS (pH 7.2) was added to FAC solution (20 mM) to prepare an iron citrate complex ammonium salt solution having a concentration of iron ions of 2 mM (“FAC solution (2 mM)”).
Iron citrate complex ammonium salt solution [FAC solution (20 mM), FAC solution (2 mM)]”, and 1×D-PBS (pH 7.2) were mixed at the ratios shown in Tables 1 to 2, the absorbance of the mixture (wavelength 470 nm) was measured by using a spectrophotometer (trade name “NanoDrop ND-1000 Full-spectrum UV/Vis Spectrophotometer”, manufactured by SCRUM Corporation, UV-Vis Module, Measure), and the absorbance of blank ([A] in Tables 1 to 2) was determined. Then, 158 μL of Fe-Ser•Na (50 mM) was added to the mixture, the absorbance (wavelength 470 nm) was measured as described above, and the absorbance after addition of iron chelating agent according to Examples ([B] in Tables 1 to 2) was determined.

[3] = FAC solution (2 mM) 0 μl + 1xD-PBS 160 μl + Fe-Ser•Na (50 mM) 158 μl
[4] = FAC solution (2 mM) 10 μl + 1xD-PBS 150 μl + Fe-Ser•Na (50 mM) 158 μl
[5] = FAC solution (2 mM) 20 μl + 1xD-PBS 140 μl + Fe-Ser•Na (50 mM) 158 μl
[6] = FAC solution (2 mM) 40 μl + 1xD-PBS 120 μl + Fe-Ser•Na (50 mM) 158 μl
[7] = FAC solution (2 mM) 80 μl + 1xD-PBS 80 μl + Fe-Ser•Na (50 mM) 158 μl
[8] = FAC solution (2 mM) 160 μl + 1xD-PBS 0 μl + Fe-Ser•Na (50 mM) 158 μl
[9] = FAC solution (20 mM) 0 μl + 1xD-PBS 160 μl + Fe-Ser•Na (50 mM) 158 μl
[10] = FAC solution (20 mM) 10 μl + 1xD-PBS 150 μl + Fe-Ser•Na (50 mM) 158 μl
[11] = FAC solution (20 mM) 20 μl + 1xD-PBS 140 μl + Fe-Ser•Na (50 mM) 158 μl
[12] = FAC solution (20 mM) 40 μl + 1xD-PBS 120 μl + Fe-Ser•Na (50 mM) 158 μl
[13] = FAC solution (20 mM) 80 μl + 1xD-PBS 80 μl + Fe-Ser•Na (50 mM) 158 μl
[14] = FAC solution (20 mM) 160 μl + 1xD-PBS 0 μl + Fe-Ser•Na (50 mM) 158 μl

O=C(O)C(CO)NCc1ccccc1O (stereo not shown) [Example 1, o-[(1-carboxy-2-hydroxyethyl)-amino-methyl]-phenol]
colour of the solution after mixing ([1]; FAC solution (2 mM) added to chelating agent MOPS solution (MOPS, acetonitrile)): dark brown-colored
colour of the solution after mixing ([1]; FAC solution (20 mM) added to chelating agent MOPS solution (MOPS, acetonitrile)): dark brown-colored
[B] absorbance after addition of iron chelating agent [2, 3]: 0.015
[B]-[A] [2, 3]: 0.012
[B] absorbance after addition of iron chelating agent [2, 4]: 0.027
[B]-[A] [2, 4]: 0.023
[B] absorbance after addition of iron chelating agent [2, 5]: 0.040
[B]-[A] [2, 5]: 0.035
[B] absorbance after addition of iron chelating agent [2, 6]: 0.055
[B]-[A] [2, 6]: 0.046
[B] absorbance after addition of iron chelating agent [2, 7]: 0.104
[B]-[A] [2, 7]: 0.096
[B] absorbance after addition of iron chelating agent [2, 8]: 1.181
[B]-[A] [2, 8]: 0.169
[B] absorbance after addition of iron chelating agent [2, 9]: 0.010
[B]-[A] [2, 9]: 0.010
[B] absorbance after addition of iron chelating agent [2, 10]: 0.109
[B]-[A] [2, 10]: 0.104
[B] absorbance after addition of iron chelating agent [2, 11]: 0.208
[B]-[A] [2, 11]: 0.199
[B] absorbance after addition of iron chelating agent [2, 12]: 0.405
[B]-[A] [2, 12]: 0.390
[B] absorbance after addition of iron chelating agent [2, 13]: 0.800
[B]-[A] [2, 13]: 0.771
[B] absorbance after addition of iron chelating agent [2, 14]: 1.368
[B]-[A] [2, 14]: 1.311
capture of iron ions from the iron citrate complex ([2]; conclusion from Tables 1 to 2): iron ions can be captured
chelating ability with iron ([2]; conclusion from Tables 1 to 2): has chelating ability with iron
